From patent US5716971A, “Pyridine derivatives, their production and use” (Takeda Chemical Industries, Ltd., priority 1993, dated 1998)
Like-named read-outs stand apart in the source and are kept apart here.

Tests used:
specimen of rat aorta [1] = assay: Vasorelaxation activity in a specimen of rat aorta: contraction caused by TEA and BaCl2; settings: TEA (30-45 mM) and BaCl2 (0.3 mM) contraction, read-out: constriction inhibitory ratio
Experimental: Vasorelaxation activity in a specimen of rat aorta Effects on contraction caused by tetraethylammonium chloride (TEA) and barium chloride (BaCl2)
(§1) Male Wister rats (10 to 13 week old were employed for the experiment. After dehematization, the aorta was excised and a ring specimen (5 mm length) was prepared. The specimen was suspended in a bath filled with oxygenated (95% O2 -5%CO2) Krebs solution (36° C.). The ring specimen was fixed at one end and the other end was connected to a transducer (Nippon Koden) for recording tension to determine the tension. After a stabilization period of one hour, TEA (30-45 mM) and BaCl2 (0.3 mM) were added to the bath to cause vasoconstriction. After the constriction had reached a steady state (after about 15 minutes), a test compound was added to the bath and its relaxation activity was measured.

specimen of rat aorta [2] = assay: Vasorelaxation activity in a specimen of rat aorta: contraction caused by KCl; settings: read-out: constriction inhibitory ratio
Experimental: as §1
Vasorelaxation activity in a specimen of rat aorta Effects on contraction caused by potassium chloride (KCl)
The same experiment was conducted as in Experiment 1, excepting the use of KCl ([…]) instead of TEA and BaCl2

anesthetized dogs = assay: Action of increasing coronary blood flow in anesthetized dogs (administration into coronary artery); assay type: in vivo, dog; settings: injected into coronary artery, anesthetized Beagle dogs
Experimental: Action of increasing coronary blood flow in anesthetized dogs (Administration into coronary artery) Method: Beagle dogs (10 to 12 kg body weight) were anesthetized with pentobarbital and subjected to thoractomy under artificial respiration. A by-pass fitted with an electromagnetic flowmeter (Nippon Koden) was prepared between the left coronary artery and left carotid artery,and the volume of coronary blood flow was measured. […]
Maximal change rate against the value measured before the administration (% of basal flow) and the duration period [shown in terms of the time (T1/2) in which the activity is reduced to half] are shown in Table 67. As a result, it is apparent that the compounds of this invention show action of increasing coronary blood flow.

[3] = tested on: Spontaneously hypertensive rats; assay: Hypotensive activity in rats (Tail Cuff Method), oral; assay type: in vivo; settings: Rattus norvegicus, 1 mg/kg, SHR
Experimental: Hypotensive activity in rats (Tail Cuff Method)
Spontaneously hypertensive rats (SHR, male, 20 to 23 week old) were warmed up to 36° C. The blood pressure at the tail aorta was measured by the tail cuff method. The blood pressure was measured three times, i.e. before oral administration of the test compound, two hours after the administration and five hours after the administration. The test compound was orally administered in the state of a suspension in gum arabic.
Maximal, hypotensive effect against the blood pressure before the administration is shown as % pre. in Table 66. As a result, it is apparent that the compounds of this invention show hypotensive activity.

[4] = after 2 hours, read-out: Maximal hypotensive effect against blood pressure before administration (% pre.), after 2 hours
[5] = after 5 hours, read-out: Maximal hypotensive effect against blood pressure before administration (% pre.), after 5 hours

SMILES | inhibition at 1 µM (specimen of rat aorta [1]) | inhibition at 3 µM (specimen of rat aorta [1]) | inhibition at 1 µM (specimen of rat aorta [2]) | inhibition at 3 µM (specimen of rat aorta [2]) | inhibition at 10 µM (specimen of rat aorta [1]) | inhibition at 10 µM (specimen of rat aorta [2]) | duration (T1/2): time in which the activity is reduced to half (anesthetized dogs; 30 ug/day) | inhibition in vivo at 1 mg/kg [3, 4] | inhibition in vivo at 1 mg/kg [3, 5] | duration (T1/2): time in which the activity is reduced to half (anesthetized dogs; 10 μg/dog administration)
CC(C)(C)O/N=C(/c1cc(C(F)(F)F)ccc1O)c1ncccc1O [Compound 4, (Z)-2-(5-trifluoromethyl-2-hydroxybenzoyl)-3-hydroxypyridine O-t-butyloxime] | 38% | 79% | -2% | 7% | – | – | – | – | – | –
CC(C)(C)O/N=C(/c1cc(F)ccc1O)c1ncccc1O [Compound 8, (Z)-2-(5-fluoro-2-hydroxybenzoyl)-3-hydroxypyridine O-t-butyloxime] | 16% | 93% | -9% | -2% | – | – | – | – | – | –
CC(C)(C)O/N=C(/c1cc(C#N)ccc1O)c1ncccc1O [Compound 9, (Z)-2-(5-cyano-2-hydroxybenzoyl)-3-hydroxypyridine O-t-butyloxime] | – | 22% | – | 0% | 82% | 10% | – | – | – | –
CCCCO/N=C(/c1cc(Br)ccc1O)c1ncccc1O [Compound 18] | – | 41% | – | – | 63% | – | – | – | – | –
CC(C)O/N=C(/c1cc(Br)ccc1O)c1ncccc1O [Compound 19, (Z)-2-(5-bromo-2-hydroxybenzoyl)-3-hydroxypyridine O-i-propyloxime] | 58% | 95% | -5% | 6% | – | – | – | – | – | –
Cc1ccc(O)c(/C(=N/OC(C)(C)C)c2ncccc2O)c1 [Compound 23, (Z)-2-(2-hydroxy-5-methylbenzoyl)-3-hydroxypyridine O-t-butyloxime] | – | – | – | – | – | – | 1.2 min | – | – | –
CC(C)(C)O/N=C(/c1cc([N+](=O)[O-])ccc1O)c1ncccc1O [Compound 27, (Z)-2-(2-hydroxy-5-nitrobenzoyl)-3-hydroxypyridine O-t-butyloxime] | – | – | – | – | – | – | 2.1 min | – | – | –
CC(C)(C)O/N=C(/c1ccc(F)cc1O)c1ncccc1O [Compound 30, (Z)-2-(4-fluoro-2-hydroxybenzoyl)-3-hydroxypyridine O-t-butyloxime] | 4% | 50% | – | 1% | 92% | 18% | – | – | – | –
CC(C)(C)O/N=C(/c1cc([N+](=O)[O-])ccc1O)c1c(O)ccc[n+]1[O-] [Compound 64, (Z)-2-(2-hydroxy-5-nitrobenzoyl)-3-hydroxypyridine N-oxide O-t-butyloxime] | – | 43% | – | 0% | 100% | 4% | – | – | – | –
CC(C)(C)O/N=C(/c1cc(Br)c(F)cc1O)c1ncccc1O [Compound 68, (Z)-2-(5-bromo-4-fluoro-2-hydroxybenzoyl)-3-hydroxypyridine O-t-butyloxime] | 92% | – | 4% | – | – | – | – | – | – | –
CC(C)(C)O/N=C(/c1cc(Br)c(F)cc1O)c1c(O)ccc[n+]1[O-] [Compound 69, (Z)-2-(5-bromo-4-fluoro-2-hydroxybenzoyl)-3-hydroxypyridine N-oxide O-t-butyloxime] | 100% | – | 0% | – | – | – | – | 26% | 19% | –
CC(C)(C)O/N=C(/c1cc(Br)ccc1O)c1cccc[n+]1[O-] [Compound 89, (Z)-2-(5-bromo-2-hydroxybenzoyl)pyridine N-oxide O-t-butyloxime] | – | 55% | – | 11% | 85% | 32% | – | – | – | –
CC(C)(C)O/N=C(/c1cc(F)c(Cl)cc1O)c1cccc[n+]1[O-] [Compound 103, (Z)-2-(4-chloro-5-fluoro-2-hydroxybenzoyl)pyridine N-oxide O-t-butyloxime] | – | 29% | – | – | 47% | – | 3.0 min | – | – | –
Cc1cc(O)c(/C(=N/OC(C)(C)C)c2ncccc2O)cc1C [Compound 106, (Z)-2-(2-hydroxy-4,5-dimethylbenzoyl)-3-hydroxy pyridine O-t-butyloxime] | 2% | 56% | 0% | 5% | 100% | 39% | – | – | – | –
Cc1cc(/C(=N/OC(C)(C)C)c2ncccc2O)c(O)cc1F [Compound 111, (Z)-2-(4-fluoro-2-hydroxy-5-methylbenzoyl)-3-hydroxy pyridine O-t-butyloxime] | 81% | 92% | 0% | 0% | – | – | – | – | – | –
Cc1cc(O)c(/C(=N/OC(C)(C)C)c2ncccc2O)cc1F [Compound 114, (Z)-2-(5-fluoro-2-hydroxy-4-methylbenzoyl)-3-hydroxy pyridine O-t-butyloxime] | 65% | 89% | 0% | 0% | – | – | – | – | – | –
CC(C)(C)O/N=C(/c1cc(C=O)ccc1O)c1ncccc1O [Compound 117] | 10% | 52% | 4% | 12% | 99% | 32% | – | – | – | –
CC(C)(C)O/N=C(/c1cc(Br)c(Cl)cc1O)c1c(O)ccc[n+]1[O-] [Compound 119, (Z)-2-(5-bromo-4-chloro-2-hydroxybenzoyl)-3-hydroxypyridine N-oxide O-t-butyloxime] | 69% | 71% | 5% | 6% | – | – | – | 48% | 29% | –
COc1cc(O)c(/C(=N/OC(C)(C)C)c2c(O)ccc[n+]2[O-])cc1Br [Compound 121, (Z)-2-(5-bromo-2-hydroxy-4-methoxybenzoyl)-3-hydroxy pyridine N-oxide O-t-butyloxime] | 3% | 57% | – | 0% | 82% | 0% | – | – | – | –
CC(C)(C)O/N=C(/c1cc(Cl)c(Cl)cc1O)c1c(O)ccc[n+]1[O-] [Compound 122, (Z)-2-(4,5-dichloro-2-hydroxybenzoyl)-3-hydroxypyridine N-oxide O-t-butyloxime] | 100% | – | 0% | – | – | – | – | 30% | 24% | –
CC(C)(C)O/N=C(/c1cc(Cl)ccc1O)c1c(O)ccc[n+]1[O-] [Compound 123] | – | 52% | – | 0% | 91% | 0% | – | 37% | 12% | –
Cc1cc(O)c(/C(=N/OC(C)(C)C)c2c(O)ccc[n+]2[O-])cc1C [Compound 125, (Z)-2-(2-hydroxy-4,5-dimethyl-benzoyl)-3-hydroxy pyridine N-oxide O-t-butyloxime] | – | 25% | – | 1% | 78% | 8% | – | – | – | –
Cc1cc(O)c(/C(=N/OC(C)(C)C)c2c(O)ccc[n+]2[O-])cc1F [Compound 127, (Z)-2-(5-fluoro-2-hydroxy-4-methylbenzoyl)-3-hydroxy pyridine N-oxide O-t-butyloxime] | 8% | 85% | – | 0% | 100% | 0% | – | – | – | –
CC(C)(C)O/N=C(/c1cc(Cl)ccc1O)c1ncccc1Cl [Compound 147, (Z)-2-(5-chloro-2-hydroxybenzoyl)-3-chloro pyridine O-t-butyloxime] | 100% | – | 16% | – | – | – | – | – | – | –
CCOc1cc(O)c(/C(=N/OC(C)(C)C)c2ncccc2O)cc1Cl [Compound 160] | 100% | – | 18% | – | – | – | – | – | – | –
CC(C)(C)O/N=C(/c1cc(Br)c(F)cc1O)c1c(OC(=O)C(C)(C)C)ccc[n+]1[O-] [Compound 171, (Z)-2-(5-bromo-4-fluoro-2-hydroxybenzoyl)-3-pivaloyloxypyridine N-oxide O-t-butyloxime] | – | – | – | – | – | – | – | – | – | 23.4 min
